Experimental data taken from ChEMBL document CHEMBL5329201, “Development of 3-acetylindole derivatives that selectively target BRPF1 as new inhibitors of receptor activator of NF-κB ligand (RANKL)-Induced osteoclastogenesis” (Bioorg Med Chem, 2023).
Active and inactive are the calls of the source. No cut-off for these calls is given here.

What was measured:
Homo sapiens [1] = species: Homo sapiens; assay: Inhibition of His-tagged human recombinant BRPF1B bromodomain using biotinylated H4 (1 to 21)K5/8/12/16Ac peptide as substrate at 20 uM incubated for 0.5 hrs by AlphaScreen assay relative to control
[2] = Anti-osteoclastogensis activity in C57BL/6 mouse BMMC cells assessed as inhibition of RANKL/M-CSF-induced TRAP activity at 1 uM measured after 3 days by colorimetric assay (reference value: 0%); format: functional; details: C57BL/6, BMMC, 72 h, time 3 day
[3] = Cytotoxicity against C57BL/6 mouse BMMC cells assessed as cell viability at 10 uM measured after 48 hrs by CCK-8 assay (reference value: 100%); format: toxicity, cell-based; details: read-out: Activity
[4] = Inhibition of His-tagged human recombinant BRPF1B bromodomain using biotinylated H4 (1 to 21)K5/8/12/16Ac peptide as substrate incubated for 0.5 hrs by AlphaScreen assay
Homo sapiens [5] = species: Homo sapiens; assay: Binding affinity to BRPF1B (unknown origin) assessed as change in melting temperature at 10 uM by Differential scanning fluorimetry
Homo sapiens [6] = species: Homo sapiens; assay: Inhibition of His-tagged human recombinant BRPF1B bromodomain using biotinylated H4 (1 to 21)K5/8/12/16Ac peptide as substrate at 2 uM incubated for 0.5 hrs by AlphaScreen assay relative to control
BMMC [7] = assay: Anti-osteoclastogenesis activity in C57BL/6 mouse BMMC cells assessed as reduction of RANKL/M-CSF-induced osteoclast activation and differentiation measured after 5 days by TRAP staining based light microscopic analysis; format: functional, cell-based; details: for Activity: time 5.0 day
BMMC [8] = assay: Anti-osteoclastogenesis activity in C57BL/6 mouse BMMC cells assessed as reduction of RANKL/M-CSF-induced c-fos mRNA expression measured after 3 days by qRT-PCR analysis; format: functional, cell-based; details: dose 2.5-10 µM, time 3.0 day
BMMC [9] = assay: Anti-osteoclastogenesis activity in C57BL/6 mouse BMMC cells assessed as reduction of RANKL/M-CSF-induced osteoclast activation and differentiation by measuring F-actin ring formation with fewer and smaller nuclei measured after 5 days by F-actin staining based microscopic analysis; format: functional, cell-based; details: time 5.0 day
BMMC [10] = assay: Anti-osteoclastogenesis activity in C57BL/6 mouse BMMC cells assessed as reduction of RANKL/M-CSF-induced TRAP mRNA expression at 1 uM measured after 3 days by qRT-PCR analysis; format: functional, cell-based; details: time 3.0 day
BMMC [11] = assay: Anti-osteoclastogenesis activity in C57BL/6 mouse BMMC cells assessed as reduction of RANKL/M-CSF-induced osteoclast activation and differentiation by measuring decrease in F-actin ring formation measured after 5 days by F-actin staining based microscopic analysis; format: functional, cell-based; details: time 5.0 day
BMMC [12] = assay: Anti-osteoclastogenesis activity in C57BL/6 mouse BMMC cells assessed as reduction of RANKL/M-CSF-induced bone resorption of osteoclasts by measuring decrease in bone resorption pit formation treated for 7 days after seeding cells onto bone slices by toluidine blue staining based confocal laser microscopic analysis; format: functional, cell-based; details: dose 0.625-10 µM, time 7.0 day
BMMC [13] = assay: Anti-osteoclastogenesis activity in C57BL/6 mouse BMMC cells assessed as reduction of RANKL/M-CSF-induced CTSK mRNA expression at 1 uM measured after 3 days by qRT-PCR analysis; format: functional, cell-based; details: time 3.0 day
BMMC [14] = assay: Anti-osteoclastogenesis activity in C57BL/6 mouse BMMC cells assessed as reduction of RANKL/M-CSF-induced bone resorption of osteoclasts by measuring decrease in pit areas treated for 7 days after seeding cells onto bone slices by toluidine blue staining based confocal laser microscopic analysis; format: functional, cell-based; details: dose 0.625-10 µM, time 7.0 day
BMMC [15] = assay: Anti-osteoclastogenesis activity in C57BL/6 mouse BMMC cells assessed as reduction of RANKL/M-CSF-induced NFATc1 mRNA expression at 1 uM measured after 3 days by qRT-PCR analysis; format: functional, cell-based; details: time 3.0 day
BMMC [16] = assay: Anti-osteoclastogenesis activity in C57BL/6 mouse BMMC cells assessed as reduction of RANKL/M-CSF-induced c-fos expression at 1 to 10 uM measured after 3 days by Western blot analysis; format: functional, cell-based; details: dose 1-10 µM, time 3.0 day

inhibition (Homo sapiens [1])	IC50 [4]	Structure (SMILES)	inhibition at 1 µM [2]	viability at 48 h, 10 µM [3]	further results
82.3%		COC(=O)c1cc(NC(=O)Nc2cccc(C(F)(F)F)c2)c2[nH]c(C)c(C(C)=O)c2c1			
	540 nM	CC(=O)c1c(C)[nH]c2c(N(C)C)cc(-c3ccccn3)cc12	100%	28.9%	
	1830 nM	CCOC(=O)Nc1cc(C(=O)NC2CCCC2)cc2c(C(C)=O)c(C)[nH]c12			
	3430 nM	CC(=O)c1c(C)[nH]c2c(NC3CNC3)cc(-c3cccnc3)cc12			
		COC(=O)c1cc(NC(=O)c2ccc(Cl)cc2)c2[nH]c(C)c(C(C)=O)c2c1			ΔTm (Homo sapiens [5]): 1.92 °C
	309 nM	CCOC(=O)Nc1cc(C(=O)Nc2nccs2)cc2c(C(C)=O)c(C)[nH]c12	0%	104%	
100%		CCCC(=O)Nc1cc(C(=O)OC)cc2c(C(C)=O)c(C)[nH]c12			inhibition (Homo sapiens [6]): 38.5%
	70 nM	CC(=O)c1c(C)[nH]c2c(N(C)C)cc(-c3ccncc3)cc12	67.1%	110%	
	109 nM	CCOC(=O)Nc1cc(-c2ccncc2)cc2c(C(C)=O)c(C)[nH]c12	66.5%	107%	
	908 nM	CCOC(=O)Nc1cc(C(=O)NC)cc2c(C(C)=O)c(C)[nH]c12	36.8%	92.6%	
100%		COC(=O)c1cc(NC(=O)Nc2ccccc2)c2[nH]c(C)c(C(C)=O)c2c1			inhibition (Homo sapiens [6]): 17.6%
13.1%		CCOC(=O)Nc1cc(C(=O)OC)cc2c(C(C)=O)c[nH]c12			
	206 nM	CCOC(=O)Nc1cc(-c2ccccc2)cc2c(C(C)=O)c(C)[nH]c12	0%	110%	
91.9%		COC(=O)c1cc(NC(=O)Nc2ccccc2OC)c2[nH]c(C)c(C(C)=O)c2c1			
	173 nM	CC(=O)c1c(C)[nH]c2c(N(C)C)cc(-c3cccnc3)cc12	26.2%	104%	
100%		COc1ccccc1C(=O)Nc1cc2c(cc1N1CCCC1)n(C)c(=O)n2C			inhibition (Homo sapiens [6]): 101%
28.3%		COC(=O)c1cc(NC(=O)c2ccccc2OC)c2[nH]c(C)c(C(C)=O)c2c1			
	1440 nM	CCNC(=O)Nc1cc(-c2cccnc2)cc2c(C(C)=O)c(C)[nH]c12			

inhibition (Homo sapiens [1])	IC50 [4]	Structure (SMILES)	inhibition at 1 µM [2]	viability at 48 h, 10 µM [3]	further results
	1700 nM	CCOC(=O)Nc1cc(C(=O)Nc2ccccc2)cc2c(C(C)=O)c(C)[nH]c12			
		CCOC(=O)CNc1cc(C(=O)OC)cc2c(C(C)=O)c(C)[nH]c12			ΔTm (Homo sapiens [5]): 5.18 °C
	1090 nM	COc1ccccc1S(=O)(=O)Nc1cc(-c2cccnc2)cc2c(C(C)=O)c(C)[nH]c12	74.2%	92.7%	Activity (BMMC [7]): Dose-Dependent Effect
	442 nM	CC(=O)c1c(C)[nH]c2c(NC3CCNCC3)cc(-c3cccnc3)cc12	57.1%	94.9%	
100%		CCNC(=O)Nc1cc(C(=O)OC)cc2c(C(C)=O)c(C)[nH]c12			inhibition (Homo sapiens [6]): 42.2%
	233 nM	CC(=O)c1c(C)[nH]c2c(N3CCCC3)cc(-c3cccnc3)cc12	40%	101%	
100%		COC(=O)c1cc(NS(=O)(=O)c2ccccc2)c2[nH]c(C)c(C(C)=O)c2c1			inhibition (Homo sapiens [6]): 18.3%
	1120 nM	CC(=O)c1c(C)[nH]c2c(N)cc(-c3cccnc3)cc12	0%	109%	
	> 10000 nM	CCOC(=O)Nc1cc(-c2ccccn2)cc2cc(C)[nH]c12			
99.8%		CCOC(=O)Nc1cc(C(=O)OC)cc2c(C(C)=O)c(C)n(C)c12			inhibition (Homo sapiens [6]): 17.6%
100%		COC(=O)c1cc(NC(=O)c2ccccc2)c2[nH]c(C)c(C(C)=O)c2c1			inhibition (Homo sapiens [6]): 11.5%
	109 nM	CCOC(=O)Nc1cc(-c2ccccn2)cc2c(C(C)=O)c(C)[nH]c12	38.8%	110%	
	90 nM	CC(=O)c1c(C)[nH]c2c(N(C)C)cc(-c3nccs3)cc12	44.1%	92.6%	
	102 nM	CCOC(=O)Nc1cc(-c2cccnc2)cc2c(C(C)=O)c(C)[nH]c12	73.8%	113%	Activity (BMMC [8]): Dose-Dependent Effect; Activity (BMMC [9]): Active; Activity (BMMC [10]): Active; Activity (BMMC [11]): Active; Activity (BMMC [12]): Dose-Dependent Effect; Activity (BMMC [13]): Active; Activity (BMMC [14]): Dose-Dependent Effect; Activity (BMMC [15]): Active; IC50 (BMMC [7]; C57BL/6, BMMC, 120 h): 190 nM; Activity (BMMC [7]): Dose-Dependent Effect; Activity (BMMC [16]): Active
	743 nM	CCOC(=O)Nc1cc(C(=O)c2ccccc2)cc2c(C(C)=O)c(C)[nH]c12	66.8%	119%	
	294 nM	CCOC(=O)Nc1cc(-c2nccs2)cc2c(C(C)=O)c(C)[nH]c12	41.3%	111%	
100%	558 nM	CCOC(=O)Nc1cc(C(=O)OC)cc2c(C(C)=O)c(C)[nH]c12			inhibition (Homo sapiens [6]): 93.1%; ΔTm (Homo sapiens [5]): 5.39 °C
100%		COC(=O)c1cc(NS(=O)(=O)c2ccccc2OC)c2[nH]c(C)c(C(C)=O)c2c1			inhibition (Homo sapiens [6]): 60%
